The results in this text go back to US7091340B2, “Polymorphs” (Boehringer Ingelheim Pharmaceuticals, Inc., priority 2003, dated 2006).

Data set [1] in a line: Microscopical solution phase transformation experiments. Format: physicochemical. The following applies: room temperature; Forms IV and VI compared.
Data set [2] in a line: Solubility vs. temperature profile experiments. Format: physicochemical. The following applies: within the temperature range of the experiment.

For the compound `Cc1ccc(-n2nc(C(C)(C)C)cc2NC(=O)Nc2ccc(OCCN3CCOCC3)c3ccccc23)cc1` [Form VI, 1-(5-tert-butyl-2-p-tolyl-2H-pyrazol-3-yl)-3-[4-(2-morpholin-4-yl-ethoxy)-naphthalen-1-yl]-urea], the “thermodynamic stability relative to Form IV” value in data set [1] was “more thermodynamically stable at room temperature relative to Form IV”; in data set [2] (Forms IV and VI compared) it was “more thermodynamically stable relative to Form IV”. For the same compound, the “thermodynamic relationship of the two forms” value in data set [2] was “monotropically related”.
